Reference: US10722520B2, “Heterocyclic compounds and their use in preventing or treating bacterial infections” (MUTABILIS, priority 2016, dated 2020)

What was measured:
OXA-11 = OXA-11 (Pseudomonas aeruginosa, UniProt Q06778)
CTX-M-15 = CTX-M-15 (Escherichia coli, UniProt Q9EXV5)
SHV-1 = SHV-1 (Klebsiella pneumoniae, UniProt P0AD64)
E. coli RGN238 [1] = test: MIC of ceftazidime (CAZ) at fixed concentration of compound (synergy), broth microdilution; format: cell-based; details: MIC of ceftazidime with compound fixed at 4 μg/mL; strain RGN238 (E. coli)
Procedure, shortened: (§1)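 Log-phase bacteria were diluted to a final 5×10^5 cfu/mL in cation-adjusted Mueller-Hinton broth and incubated 16-20 h at 35° C in ambient air. MIC was taken as the lowest concentration preventing growth, judged visually.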

E. coli UFR61O = test: as above; format: cell-based; details: MIC of ceftazidime with compound fixed at 4 μg/mL; strain UFR61O (E. coli)
Procedure, shortened: as §1

E. coli 190317 = test: as above; format: cell-based; details: MIC of ceftazidime with compound fixed at 4 μg/mL; strain 190317 (E. coli)
Procedure, shortened: as §1

E. cloacae 260508 = test: as above; format: cell-based; details: MIC of ceftazidime with compound fixed at 4 μg/mL; strain 260508 (E. cloacae)
Procedure, shortened: as §1

E. coli UFR39 = test: as above; format: cell-based; details: MIC of ceftazidime with compound fixed at 4 μg/mL; strain UFR39 (E. coli)
Procedure, shortened: as §1

P. aeruginosa CIP107051 = test: as above; format: cell-based; details: MIC of ceftazidime with compound fixed at 4 μg/mL; strain CIP107051 (P. aeruginosa)
Procedure, shortened: as §1

E. coli UFR41 = test: as above; format: cell-based; details: MIC of ceftazidime with compound fixed at 4 μg/mL; strain UFR41 (E. coli)
Procedure, shortened: as §1

K. pneumoniae 6299 = test: as above; format: cell-based; details: MIC of ceftazidime with compound fixed at 4 μg/mL; strain 6299 (K. pneumoniae)
Procedure, shortened: as §1

K. pneumoniae UFR77 = test: as above; format: cell-based; details: MIC of ceftazidime with compound fixed at 4 μg/mL; strain UFR77 (K. pneumoniae)
Procedure, shortened: as §1

E. coli 131119 = test: as above; format: cell-based; details: MIC of ceftazidime with compound fixed at 4 μg/mL; strain 131119 (E. coli)
Procedure, shortened: as §1

K. pneumoniae UFR68 = test: as above; format: cell-based; details: MIC of ceftazidime with compound fixed at 4 μg/mL; strain UFR68 (K. pneumoniae)
Procedure, shortened: as §1

K. pneumoniae 200047 = test: as above; format: cell-based; details: MIC of ceftazidime with compound fixed at 4 μg/mL; strain 200047 (K. pneumoniae)
Procedure, shortened: as §1

K. pneumoniae BAA-1898 = test: as above; format: cell-based; details: MIC of ceftazidime with compound fixed at 4 μg/mL; strain BAA-1898 (K. pneumoniae)
Procedure, shortened: as §1

E. cloacae UFR85 = test: as above; format: cell-based; details: MIC of ceftazidime with compound fixed at 4 μg/mL; strain UFR85 (E. cloacae)
Procedure, shortened: as §1

K. oxytoca UFR21 = test: as above; format: cell-based; details: MIC of ceftazidime with compound fixed at 4 μg/mL; strain UFR21 (K. oxytoca)
Procedure, shortened: as §1

E. coli UFR18 = test: as above; format: cell-based; details: MIC of ceftazidime with compound fixed at 4 μg/mL; strain UFR18 (E. coli)
Procedure, shortened: as §1

E. coli UFR32 = test: as above; format: cell-based; details: MIC of ceftazidime with compound fixed at 4 μg/mL; strain UFR32 (E. coli)
Procedure, shortened: as §1

E. cloacae P99 = test: as above; format: cell-based; details: MIC of ceftazidime with compound fixed at 4 μg/mL; strain P99 (E. cloacae)
Procedure, shortened: as §1

K. pneumoniae 160143 = test: as above; format: cell-based; details: MIC of ceftazidime with compound fixed at 4 μg/mL; strain 160143 (K. pneumoniae)
Procedure, shortened: as §1

E. coli UFR74 = test: as above; format: cell-based; details: MIC of ceftazidime with compound fixed at 4 μg/mL; strain UFR74 (E. coli)
Procedure, shortened: as §1

E. cloacae UFR51 = test: as above; format: cell-based; details: MIC of ceftazidime with compound fixed at 4 μg/mL; strain UFR51 (E. cloacae)
Procedure, shortened: as §1

E. cloacae UFR70 = test: as above; format: cell-based; details: MIC of ceftazidime with compound fixed at 4 μg/mL; strain UFR70 (E. cloacae)
Procedure, shortened: as §1

K. pneumoniae UFR24 = test: as above; format: cell-based; details: MIC of ceftazidime with compound fixed at 4 μg/mL; strain UFR24 (K. pneumoniae)
Procedure, shortened: as §1

OXA-48 = OXA-48 (Klebsiella pneumoniae, UniProt Q6XEC0)
OXA-48, sequence (Q6XEC0 23-265, looked up, species assumed): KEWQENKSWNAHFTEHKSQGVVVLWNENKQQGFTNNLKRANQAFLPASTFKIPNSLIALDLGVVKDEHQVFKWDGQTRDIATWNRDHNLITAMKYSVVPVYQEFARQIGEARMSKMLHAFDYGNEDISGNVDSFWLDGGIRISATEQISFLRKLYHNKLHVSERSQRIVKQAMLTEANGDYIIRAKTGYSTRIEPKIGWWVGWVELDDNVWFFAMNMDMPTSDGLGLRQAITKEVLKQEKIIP

E. coli RGN238 [2] = test: microbe, parasite or virus in culture; format: cell-based; details: Escherichia coli, RGN238, read-out: MIC compounds of the invention alone
Procedure: Log phase bacterial suspensions were adjusted to a final density of 5×10^5 cfu/mL in cation-adjusted Mueller-Hinton broth (Becton-Dickinson) and added to each well (98 μL). Microplates were incubated for 16-20 h at 35° C. in ambient air. The MIC of the compounds was defined as the lowest concentration of said compounds that prevented bacterial growth as read by visual inspection.

OXA-11, sequence (Q06778 21-266): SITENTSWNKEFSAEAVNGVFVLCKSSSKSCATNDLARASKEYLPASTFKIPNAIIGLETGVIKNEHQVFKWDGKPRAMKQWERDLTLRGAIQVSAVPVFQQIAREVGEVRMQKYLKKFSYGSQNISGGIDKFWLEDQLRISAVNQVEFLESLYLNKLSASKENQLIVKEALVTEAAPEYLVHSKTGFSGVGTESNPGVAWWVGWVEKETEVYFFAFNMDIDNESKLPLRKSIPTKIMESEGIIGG
CTX-M-15, sequence (Q9EXV5 29-291, species assumed): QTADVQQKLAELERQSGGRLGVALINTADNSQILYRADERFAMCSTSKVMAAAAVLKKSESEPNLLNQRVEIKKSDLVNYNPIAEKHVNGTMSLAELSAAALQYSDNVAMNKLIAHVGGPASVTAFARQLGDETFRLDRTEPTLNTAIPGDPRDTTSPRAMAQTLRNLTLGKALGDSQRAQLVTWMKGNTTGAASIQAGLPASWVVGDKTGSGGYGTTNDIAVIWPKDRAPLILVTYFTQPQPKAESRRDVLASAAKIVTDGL
SHV-1, sequence (P0AD64 22-286): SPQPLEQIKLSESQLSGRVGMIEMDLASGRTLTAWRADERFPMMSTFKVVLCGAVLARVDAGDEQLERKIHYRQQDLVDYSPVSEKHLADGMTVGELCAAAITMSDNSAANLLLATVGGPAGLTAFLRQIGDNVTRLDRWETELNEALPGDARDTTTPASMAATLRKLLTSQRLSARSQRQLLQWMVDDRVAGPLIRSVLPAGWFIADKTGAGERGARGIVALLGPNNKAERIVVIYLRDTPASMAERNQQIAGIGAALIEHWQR

| Structure (SMILES) | IC50 (OXA-11) [nM] | IC50 (CTX-M-15) [nM] | IC50 (SHV-1) [nM] | MIC combination of CAZ and compounds of the invention at 4 μg/mL (E. coli RGN238 [1]) | MIC combination of CAZ and compounds of the invention at 4 μg/mL (E. coli UFR61O) | MIC combination of CAZ and compounds of the invention at 4 μg/mL (E. coli 190317) | MIC combination of CAZ and compounds of the invention at 4 μg/mL (E. cloacae 260508) | MIC combination of CAZ and compounds of the invention at 4 μg/mL (E. coli UFR39) | MIC combination of CAZ and compounds of the invention at 4 μg/mL (P. aeruginosa CIP107051) | MIC combination of CAZ and compounds of the invention at 4 μg/mL (E. coli UFR41) | MIC combination of CAZ and compounds of the invention at 4 μg/mL (K. pneumoniae 6299) | MIC combination of CAZ and compounds of the invention at 4 μg/mL (K. pneumoniae UFR77) | MIC combination of CAZ and compounds of the invention at 4 μg/mL (E. coli 131119) | MIC combination of CAZ and compounds of the invention at 4 μg/mL (K. pneumoniae UFR68) | MIC combination of CAZ and compounds of the invention at 4 μg/mL (K. pneumoniae 200047) | MIC combination of CAZ and compounds of the invention at 4 μg/mL (K. pneumoniae BAA-1898) | MIC combination of CAZ and compounds of the invention at 4 μg/mL (E. cloacae UFR85) | MIC combination of CAZ and compounds of the invention at 4 μg/mL (K. oxytoca UFR21) | MIC combination of CAZ and compounds of the invention at 4 μg/mL (E. coli UFR18) | MIC combination of CAZ and compounds of the invention at 4 μg/mL (E. coli UFR32) | further results |
| --- | --- | --- | --- | --- | --- | --- | --- | --- | --- | --- | --- | --- | --- | --- | --- | --- | --- | --- | --- | --- | --- |
| O=C1N2CC(n3nccn3)=CC(C2)N1OS(=O)(=O)O (centres unmarked) [Example 3, sodium [7-oxo-3-(triazol-2-yl)-1,6-diazabicyclo[3.2.1]oct-3-en-6-yl]sulfate] | 85 | 2.1 | 9.7 | <0.25 | ≤0.25 | <0.25 | <0.25 | >128 | 4 | >128 | <0.25 | <0.25 | <0.25 | 0.5 | <0.25 | 0.5 | <0.25 | 0.5 | <0.25 | <0.25 | MIC combination of CAZ and compounds of the invention at 4 μg/mL (E. cloacae P99): ≤0.25; MIC combination of CAZ and compounds of the invention at 4 μg/mL (K. pneumoniae 160143): <0.25; MIC combination of CAZ and compounds of the invention at 4 μg/mL (E. coli UFR74): <0.25; MIC combination of CAZ and compounds of the invention at 4 μg/mL (E. cloacae UFR51): <0.25; MIC combination of CAZ and compounds of the invention at 4 μg/mL (E. cloacae UFR70): <0.25; MIC combination of CAZ and compounds of the invention at 4 μg/mL (K. pneumoniae UFR24): ≤0.25; IC50 (OXA-48): 1.6 nM; MIC (E. coli RGN238 [2]): 2 µg/mL |
| O=C1N2CC(n3ccnn3)=C[C@H](C2)N1OS(=O)(=O)O [Example 6, sodium [(5R)-7-oxo-3-(triazol-1-yl)-1,6-diazabicyclo[3.2.1]oct-3-en-6-yl]sulfate] | 21 | 0.58 | 1.9 | <0.25 | <0.25 | <0.25 | <0.25 | <0.25 | 4 | <0.25 | <0.25 | <0.25 | <0.25 | <0.25 | <0.25 | <0.25 | <0.25 | <0.25 | <0.25 | <0.25 | MIC combination of CAZ and compounds of the invention at 4 μg/mL (E. cloacae P99): <0.25; MIC combination of CAZ and compounds of the invention at 4 μg/mL (K. pneumoniae 160143): <0.25; MIC combination of CAZ and compounds of the invention at 4 μg/mL (E. coli UFR74): <0.25; MIC combination of CAZ and compounds of the invention at 4 μg/mL (E. cloacae UFR51): <0.25; MIC combination of CAZ and compounds of the invention at 4 μg/mL (E. cloacae UFR70): <0.25; MIC combination of CAZ and compounds of the invention at 4 μg/mL (K. pneumoniae UFR24): <0.25; IC50 (OXA-48): 0.38 nM; MIC (E. coli RGN238 [2]): 1 µg/mL |
